Test results reported in ChEMBL document CHEMBL1743201, “Casarett and Doull's Toxicology The Basic Science of Poisons, 7th edition” (2008).

Legend:
Format in all cases: ADME
[1] = biological target: Sulfotransferase 1C4 (Homo sapiens, UniProt O75897); test: Major substrate of human cytosolic sulfotransferase SULT1C4
[2] = biological target: T1, Sulfotransferase 2A1 (Homo sapiens, UniProt Q06520); test: Major substrate of human cytosolic sulfotransferase SULT2A1
T1 sequence (Q06520 whole entry): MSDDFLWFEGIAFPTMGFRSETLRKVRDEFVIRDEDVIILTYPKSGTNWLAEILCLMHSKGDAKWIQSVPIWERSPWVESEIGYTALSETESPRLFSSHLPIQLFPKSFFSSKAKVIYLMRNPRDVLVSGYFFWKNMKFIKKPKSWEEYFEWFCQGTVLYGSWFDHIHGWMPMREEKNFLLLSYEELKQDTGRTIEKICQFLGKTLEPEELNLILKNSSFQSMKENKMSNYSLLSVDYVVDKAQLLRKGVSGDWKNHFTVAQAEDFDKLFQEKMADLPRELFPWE

[3] = biological target: Sulfotransferase 1A3 (Homo sapiens, UniProt P0DMM9); test: Major substrate of human cytosolic sulfotransferase SULT1A3
Chain of Sulfotransferase 1A3 (P0DMM9 whole entry): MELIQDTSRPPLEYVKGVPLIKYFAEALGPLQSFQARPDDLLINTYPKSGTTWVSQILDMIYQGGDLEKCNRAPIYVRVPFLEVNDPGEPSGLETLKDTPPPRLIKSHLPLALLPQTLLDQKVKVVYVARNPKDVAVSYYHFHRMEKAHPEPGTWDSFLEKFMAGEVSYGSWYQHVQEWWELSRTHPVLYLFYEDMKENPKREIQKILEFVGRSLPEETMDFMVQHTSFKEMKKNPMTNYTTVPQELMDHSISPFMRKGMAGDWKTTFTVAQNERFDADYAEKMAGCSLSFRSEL

[4] = biological target: T2, UDP-glucuronosyltransferase 1A6 (Homo sapiens, UniProt P19224); test: Substrate of human UDP-glucuronosyltransferase UGT1A6
T2 sequence (P19224 whole entry): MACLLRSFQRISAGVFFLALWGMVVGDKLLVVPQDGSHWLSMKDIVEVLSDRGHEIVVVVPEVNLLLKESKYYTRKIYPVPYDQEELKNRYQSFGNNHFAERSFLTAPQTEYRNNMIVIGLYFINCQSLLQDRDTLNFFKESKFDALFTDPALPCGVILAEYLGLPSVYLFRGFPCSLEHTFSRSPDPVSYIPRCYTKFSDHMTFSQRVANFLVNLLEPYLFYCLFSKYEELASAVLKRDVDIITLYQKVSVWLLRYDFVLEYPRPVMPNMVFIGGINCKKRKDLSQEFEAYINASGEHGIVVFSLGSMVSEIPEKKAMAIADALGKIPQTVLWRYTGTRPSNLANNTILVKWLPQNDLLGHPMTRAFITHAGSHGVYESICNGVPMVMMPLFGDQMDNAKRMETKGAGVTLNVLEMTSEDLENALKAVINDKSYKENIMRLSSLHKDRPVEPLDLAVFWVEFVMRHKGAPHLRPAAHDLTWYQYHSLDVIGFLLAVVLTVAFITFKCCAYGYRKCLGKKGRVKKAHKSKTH

[5] = biological target: T3, Sulfotransferase 1E1 (Homo sapiens, UniProt P49888); test: Major substrate of human cytosolic sulfotransferase SULT1E1
T3 sequence (P49888 whole entry): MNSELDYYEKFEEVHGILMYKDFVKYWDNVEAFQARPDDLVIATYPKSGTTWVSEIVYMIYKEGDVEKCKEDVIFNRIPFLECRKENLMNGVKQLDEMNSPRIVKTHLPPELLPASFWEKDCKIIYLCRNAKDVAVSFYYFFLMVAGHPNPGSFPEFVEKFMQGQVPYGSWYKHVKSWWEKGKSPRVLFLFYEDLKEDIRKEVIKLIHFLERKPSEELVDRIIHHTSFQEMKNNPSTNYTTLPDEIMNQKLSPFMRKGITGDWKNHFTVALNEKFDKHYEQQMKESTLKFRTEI

[6] = biological target: T4, UDP-glucuronosyltransferase 1A10 (Homo sapiens, UniProt Q9HAW8); test: Substrate of human UDP-glucuronosyltransferase UGT1A10
T4 sequence (Q9HAW8 whole entry): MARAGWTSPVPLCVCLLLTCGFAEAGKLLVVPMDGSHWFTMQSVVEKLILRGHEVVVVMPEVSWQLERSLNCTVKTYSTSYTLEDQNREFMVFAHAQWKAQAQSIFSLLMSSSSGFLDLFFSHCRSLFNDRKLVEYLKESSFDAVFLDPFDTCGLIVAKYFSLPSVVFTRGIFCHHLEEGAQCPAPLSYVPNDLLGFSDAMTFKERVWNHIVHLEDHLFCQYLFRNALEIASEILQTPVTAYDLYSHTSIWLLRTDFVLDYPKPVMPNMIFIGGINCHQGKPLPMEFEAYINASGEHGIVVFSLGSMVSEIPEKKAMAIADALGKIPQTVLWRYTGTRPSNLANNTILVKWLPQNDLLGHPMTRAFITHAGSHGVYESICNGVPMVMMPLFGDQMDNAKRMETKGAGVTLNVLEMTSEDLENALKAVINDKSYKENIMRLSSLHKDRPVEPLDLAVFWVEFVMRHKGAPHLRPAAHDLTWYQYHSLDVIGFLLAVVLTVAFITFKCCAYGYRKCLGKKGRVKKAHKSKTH

[7] = biological target: Sulfotransferase 1B1 (Homo sapiens, UniProt O43704); test: Major substrate of human cytosolic sulfotransferase SULT1B1
Chain of Sulfotransferase 1B1 (O43704 whole entry): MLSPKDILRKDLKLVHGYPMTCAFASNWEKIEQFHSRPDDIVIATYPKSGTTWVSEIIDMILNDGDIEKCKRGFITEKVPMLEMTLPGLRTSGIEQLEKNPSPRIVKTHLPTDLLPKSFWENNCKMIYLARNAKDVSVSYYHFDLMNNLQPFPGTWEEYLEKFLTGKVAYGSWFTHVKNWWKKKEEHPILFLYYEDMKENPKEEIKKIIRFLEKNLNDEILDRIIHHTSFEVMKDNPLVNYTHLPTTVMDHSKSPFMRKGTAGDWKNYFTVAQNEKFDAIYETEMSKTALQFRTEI

[8] = biological target: Sulfotransferase 1A1 (Homo sapiens, UniProt P50225); test: Major substrate of human cytosolic sulfotransferase SULT1A1
Chain of Sulfotransferase 1A1 (P50225 whole entry): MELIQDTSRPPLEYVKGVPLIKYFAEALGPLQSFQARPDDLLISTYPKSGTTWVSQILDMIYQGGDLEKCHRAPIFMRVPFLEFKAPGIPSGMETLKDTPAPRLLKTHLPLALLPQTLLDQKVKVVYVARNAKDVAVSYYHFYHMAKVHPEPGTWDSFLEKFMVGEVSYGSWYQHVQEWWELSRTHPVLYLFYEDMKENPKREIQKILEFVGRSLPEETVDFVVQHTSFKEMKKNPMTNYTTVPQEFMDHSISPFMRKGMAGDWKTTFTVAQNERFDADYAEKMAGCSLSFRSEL

[9] = biological target: T5, Sulfotransferase 4A1 (Homo sapiens, UniProt Q9BR01); test: Major substrate of human cytosolic sulfotransferase SULT4A1_v1
T5 sequence (Q9BR01 whole entry): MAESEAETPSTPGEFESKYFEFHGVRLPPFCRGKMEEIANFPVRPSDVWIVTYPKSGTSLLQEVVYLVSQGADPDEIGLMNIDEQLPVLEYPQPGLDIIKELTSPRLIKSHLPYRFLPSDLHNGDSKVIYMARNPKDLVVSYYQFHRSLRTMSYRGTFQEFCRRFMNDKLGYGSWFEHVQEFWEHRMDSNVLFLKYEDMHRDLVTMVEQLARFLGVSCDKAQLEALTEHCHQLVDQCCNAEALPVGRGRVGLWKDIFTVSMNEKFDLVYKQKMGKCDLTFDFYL

[10] = biological target: T6, UDP-glucuronosyltransferase 1A9 (Homo sapiens, UniProt O60656); test: Substrate of human UDP-glucuronosyltransferase UGT1A9
T6 sequence (O60656 whole entry): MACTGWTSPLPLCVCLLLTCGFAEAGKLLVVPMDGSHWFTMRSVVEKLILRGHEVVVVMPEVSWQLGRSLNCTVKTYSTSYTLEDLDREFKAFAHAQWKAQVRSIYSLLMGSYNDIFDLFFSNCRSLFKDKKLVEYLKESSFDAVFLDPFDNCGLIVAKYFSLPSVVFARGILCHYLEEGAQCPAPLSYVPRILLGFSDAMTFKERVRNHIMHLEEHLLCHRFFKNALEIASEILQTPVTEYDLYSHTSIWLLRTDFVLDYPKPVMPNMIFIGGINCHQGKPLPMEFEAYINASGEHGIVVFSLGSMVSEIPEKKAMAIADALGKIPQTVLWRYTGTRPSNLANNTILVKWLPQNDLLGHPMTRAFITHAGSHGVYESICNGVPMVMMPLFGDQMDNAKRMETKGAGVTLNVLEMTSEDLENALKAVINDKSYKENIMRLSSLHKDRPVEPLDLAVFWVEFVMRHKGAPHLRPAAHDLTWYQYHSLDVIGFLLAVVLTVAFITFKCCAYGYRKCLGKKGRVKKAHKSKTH

[11] = biological target: T7, UDP-glucuronosyltransferase 1A8 (Homo sapiens, UniProt Q9HAW9); test: Substrate of human UDP-glucuronosyltransferase UGT1A8
T7 sequence (Q9HAW9 whole entry): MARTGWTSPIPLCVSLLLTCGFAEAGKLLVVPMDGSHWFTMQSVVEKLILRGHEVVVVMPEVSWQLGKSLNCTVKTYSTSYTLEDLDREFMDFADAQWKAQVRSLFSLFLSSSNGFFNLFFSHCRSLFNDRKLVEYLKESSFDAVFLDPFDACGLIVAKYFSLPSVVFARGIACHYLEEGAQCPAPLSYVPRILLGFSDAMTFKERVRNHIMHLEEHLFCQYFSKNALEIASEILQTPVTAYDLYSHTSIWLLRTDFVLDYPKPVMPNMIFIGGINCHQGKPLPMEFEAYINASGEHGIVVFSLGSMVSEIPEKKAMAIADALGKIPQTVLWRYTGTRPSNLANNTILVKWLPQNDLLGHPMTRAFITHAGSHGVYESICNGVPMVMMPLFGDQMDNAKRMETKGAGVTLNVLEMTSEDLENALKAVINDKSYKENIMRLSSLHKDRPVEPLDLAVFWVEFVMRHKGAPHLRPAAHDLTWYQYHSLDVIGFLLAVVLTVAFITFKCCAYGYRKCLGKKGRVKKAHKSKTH

[12] = biological target: T8, Cytochrome P450 2C8 (Homo sapiens, UniProt P10632); test: Clinically relevant inhibitors of human liver microsomal P450 enzymes, isoform CYP2C8; conditions: microsomes
T8 sequence (P10632 whole entry): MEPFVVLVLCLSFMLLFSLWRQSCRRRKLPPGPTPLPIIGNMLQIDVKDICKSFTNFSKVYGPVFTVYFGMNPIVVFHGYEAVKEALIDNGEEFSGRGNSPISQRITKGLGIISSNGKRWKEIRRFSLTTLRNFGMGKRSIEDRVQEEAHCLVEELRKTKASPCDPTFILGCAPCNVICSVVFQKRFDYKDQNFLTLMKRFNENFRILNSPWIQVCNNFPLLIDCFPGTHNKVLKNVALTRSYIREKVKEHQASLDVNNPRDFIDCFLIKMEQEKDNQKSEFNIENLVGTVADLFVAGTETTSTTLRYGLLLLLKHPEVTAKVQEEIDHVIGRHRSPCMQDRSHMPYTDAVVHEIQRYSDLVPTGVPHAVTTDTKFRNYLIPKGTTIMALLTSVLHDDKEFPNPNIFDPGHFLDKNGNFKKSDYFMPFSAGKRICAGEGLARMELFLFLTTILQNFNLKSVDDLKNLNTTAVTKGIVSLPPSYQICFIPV

[13] = biological target: T9, UDP-glucuronosyltransferase 1A1 (Homo sapiens, UniProt P22309); test: Substrate of human UDP-glucuronosyltransferase UGT1A1
T9 sequence (P22309 whole entry): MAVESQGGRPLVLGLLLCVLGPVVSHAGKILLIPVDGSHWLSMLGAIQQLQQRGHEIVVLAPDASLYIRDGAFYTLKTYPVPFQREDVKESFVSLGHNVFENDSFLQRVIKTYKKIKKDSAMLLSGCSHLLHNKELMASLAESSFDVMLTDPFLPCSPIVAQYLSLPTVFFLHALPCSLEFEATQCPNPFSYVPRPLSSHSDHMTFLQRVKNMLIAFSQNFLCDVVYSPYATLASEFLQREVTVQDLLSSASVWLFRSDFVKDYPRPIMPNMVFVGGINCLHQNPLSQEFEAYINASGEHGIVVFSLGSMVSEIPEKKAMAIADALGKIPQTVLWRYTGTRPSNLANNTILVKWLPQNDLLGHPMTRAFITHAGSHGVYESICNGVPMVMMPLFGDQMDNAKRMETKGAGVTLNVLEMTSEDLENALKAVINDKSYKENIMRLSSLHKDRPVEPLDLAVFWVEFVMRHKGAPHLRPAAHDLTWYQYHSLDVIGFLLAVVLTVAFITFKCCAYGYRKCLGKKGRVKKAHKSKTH

Chain of Sulfotransferase 1C4 (O75897 whole entry): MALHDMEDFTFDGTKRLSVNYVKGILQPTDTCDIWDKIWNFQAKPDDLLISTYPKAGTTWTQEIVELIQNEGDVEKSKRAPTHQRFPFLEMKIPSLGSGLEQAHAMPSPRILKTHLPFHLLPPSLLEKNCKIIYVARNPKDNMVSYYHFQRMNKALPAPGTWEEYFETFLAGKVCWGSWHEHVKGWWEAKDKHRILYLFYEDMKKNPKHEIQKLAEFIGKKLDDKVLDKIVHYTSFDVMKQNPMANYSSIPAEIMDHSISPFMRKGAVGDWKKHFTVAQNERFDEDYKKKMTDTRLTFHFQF

OCc1ccc2ccc3cccc4ccc1c2c34
Activity [1]: Substrate
Activity [2]: Substrate
Activity [3]: Substrate

Oc1cccc2ccccc12 [1-NAPHTHOL]
Activity [4]: Substrate
Activity [5]: Substrate
Activity [6]: Substrate

CC(C)(C)NCC(O)c1ccc(O)c(CO)c1 (stereo unspecified) [ALBUTEROL]
Activity [3]: Substrate

NC(Cc1ccc(Oc2ccc(O)c(I)c2)c(I)c1)C(=O)O (stereo unspecified) [DIIODOTHYRONINE]
Activity [7]: Substrate
Activity [8]: Substrate

CC(CCc1ccc(O)cc1)NCCc1ccc(O)c(O)c1 (stereo unspecified) [DOBUTAMINE]
Activity [3]: Substrate

NCCc1ccc(O)c(O)c1 [DOPAMINE]
Activity [7]: Substrate
Activity [3]: Substrate
Activity [8]: Substrate

CC#C[C@]1(O)CC[C@H]2[C@@H]3CCc4cc(O)ccc4[C@H]3CC[C@@]21C [ESTROGEN]
Activity [6]: Substrate

C[C@]12CC[C@@H]3c4ccc(O)cc4CC[C@H]3[C@@H]1CCC2=O [ESTRONE]
Activity [1]: Substrate
Activity [5]: Substrate
Activity [9]: Substrate
Activity [2]: Substrate

NS(=O)(=O)c1cc(C(=O)O)c(NCc2ccco2)cc1Cl [FUROSEMIDE]
Activity [10]: Substrate
Activity [6]: Substrate
Activity [11]: Substrate

Cc1ccc(C)c(OCCCC(C)(C)C(=O)O)c1 [GEMFIBROZIL]
Activity [12]: Inhibitor

N[C@@H](Cc1cc(I)c(Oc2cc(I)c(O)c(I)c2)c(I)c1)C(=O)O [LEVOTHYROXINE]
Activity [13]: Substrate
Activity [9]: Substrate
Activity [7]: Substrate

N[C@@H](Cc1cc(I)c(Oc2ccc(O)c(I)c2)c(I)c1)C(=O)O [LIOTHYRONINE]
Activity [9]: Substrate
Activity [7]: Substrate
Activity [8]: Substrate

CC(C)(O)c1ccccc1CC[C@@H](SCC1(CC(=O)O)CC1)c1cccc(/C=C/c2ccc3ccc(Cl)cc3n2)c1 [MONTELUKAST]
Activity [12]: Inhibitor

Nc1ccc2ccccc2c1 [NAPHTHYLAMINE]
Activity [9]: Substrate

NC[C@H](O)c1ccc(O)c(O)c1 [NOREPINEPHRINE]
Activity [3]: Substrate

CCc1ccc(CCOc2ccc(CC3SC(=O)NC3=O)cc2)nc1 (stereo unspecified) [PIOGLITAZONE]
Activity [12]: Inhibitor

O=c1c(O)c(-c2ccc(O)c(O)c2)oc2cc(O)cc(O)c12 [QUERCETIN]
Activity [12]: Inhibitor

O=C(c1ccc(OCCN2CCCCC2)cc1)c1c(-c2ccc(O)cc2)sc2cc(O)ccc12 [RALOXIFENE]
Activity [13]: Substrate
Activity [6]: Substrate
Activity [11]: Substrate

N[C@@H](Cc1ccc(Oc2cc(I)c(O)c(I)c2)c(I)c1)C(=O)O [REVERSE TRIIODOTHYRONINE]
Activity [7]: Substrate

CC(C)c1nc(N(C)S(C)(=O)=O)nc(-c2ccc(F)cc2)c1/C=C/[C@@H](O)C[C@@H](O)CC(=O)O [ROSUVASTATIN]
Activity [12]: Inhibitor

Cc1c(C)c2c(c(C)c1O)CCC(C)(COc1ccc(CC3SC(=O)NC3=O)cc1)O2 (stereo unspecified) [TROGLITAZONE]
Activity [6]: Substrate
Activity [11]: Substrate
Activity [8]: Substrate
